Like-named read-outs stand apart in the source and are kept apart here.

In general, pest or weed control refers to the degree to which the test organism was suppressed or injured, in per cent. Read a high pest or weed control as strong suppression.

Format in all cases: in vivo
Test [1] has as its system cucumber gray mold pathogen (Botrytis cinerea). The test can be described thus: Cucumber gray mold control test. The conditions noted are these: 96 h, cucumber seedlings (Sagami Hanjiro), emulsion sprayed at 100 ppm, 4 days. Here is the method:
Sagami Hanjiro, leaf stage: cotyledon) cultivated in unglazed pots, and allowed to air-dry at room temperature. Subsequently, the seedlings were drip-inoculated with conidiospore suspensions of cucumber gray mold pathogen (Botrytis cinerea) followed by holding for 4 days in a dark room at 20° C. and high humidity. The appearance of lesions on the leaves was compared with untreated seedlings to determine control effects.

Test [2] has as its system apple scab pathogen (Venturia inaequalis). The test can be described thus: Apple scab control test (100 ppm spray on apple seedlings). As to conditions: 336 h; apple seedlings (Ralls Janet), emulsion sprayed at 100 ppm, inoculated with Venturia inaequalis, 2 weeks. Here is the method:
Ralls Janet, leaf stage: 3 to 4) cultivated in unglazed pots and allowed to air-dry at room temperature. Subsequently, the seedlings were inoculated with conidiospores of apple scab pathogen (Venturia inaequalis) followed by holding for 2 weeks indoors at 20° C. and high humidity using a 12 hour light/dark cycle. The appearance of lesions on the leaves was compared with untreated seedlings to determine control effects.

Test [3] has as its system rice blast pathogen (Magnaporthe grisea). As to conditions: rice seedlings (Koshihikari), 400 ppm dropped onto water surface, inoculated two days later.
Test [4] has the same test system. The conditions noted are these: rice seedlings (Koshihikari), 400 ppm dropped onto water surface, inoculated 14 days later.

Turning to `CC(=O)C(C)(C)c1c(F)cccc1Oc1cnc2c(F)cccc2n1` [Compound 1-10, 3-[2-fluoro-6-(5-fluoro-quinoxalin-2-yloxy)-phenyl]-3-methyl-butan-2-one], the pest or weed control at 100 ppm in test [1] and in test [2] was at least 75% each time.
Take `CC(C)OC(=O)C(C)(C)c1ccccc1Oc1cnc2c(F)c(F)ccc2n1` [Compound 1-24]: in test [3], the control effects entry is “B (Control value of 40% to less than 60%)”.
Consider `COC(C)(C)c1ncccc1Oc1nc2ccc(F)c(F)c2nc1C` [Compound 1-35, 5,6-difluoro-2-[2-(1-methoxy-1-methyl-ethyl)-pyridin-3-yloxy]-3-methyl-quinoxaline], for which the pest or weed control at 100 ppm in test [1] and in test [2] was at least 75% throughout.
For the compound `Cc1nc2c(F)cccc2cc1Oc1cccnc1C(C)(C)O` [a-7, 2-[(8-fluoro-2-methylquinolin-3-yloxy)pyridine-2-yl]propan-2-ol], the pest or weed control at 100 ppm in test [1] and in test [2] was at least 75% each time.
Turning to `CC(C)(O)c1ncccc1Oc1cnc2c(F)cccc2c1` [a-8], in test [4], the control effects result is given as “B (Control value of 40% to less than 60%)”.
`CC(=O)c1ncccc1Oc1cc2cccc(F)c2nc1C` [a-9, 1-[3-(2-methyl-8-fluoroquinolin-3-yloxy)-pyridin-2-yl]-ethanone] had a pest or weed control at 100 ppm in test [2] of at least 75%.
For the compound `CC(C)(C#N)c1ncccc1Oc1cnc2c(F)cccc2c1` [a-11, 2-[3-(8-fluoro-quinolin-3-yloxy)-pyridin-2-yl]-2-methylpropionitrile], the pest or weed control at 100 ppm in test [1] and in test [2] was at least 75% in each case.
On to `CCOC(=O)C(C)(C)c1ncccc1Oc1cnc2c(F)cccc2c1` [a-12, 2-[3-(8-fluoro-quinolin-3-yloxy)-pyridin-2-yl]-2-methylpropionic acid ethyl ester], for which the pest or weed control at 100 ppm in test [1] and in test [2] was at least 75% throughout.
Regarding `CC(=O)C(C)(C)c1ncccc1Oc1cnc2c(F)cccc2c1` [a-15, 3-[3-(8-fluoro-quinolin-3-yloxy)-pyridin-2-yl]-3-methyl-butan-2-one], the pest or weed control at 100 ppm in test [1] and in test [2] was at least 75% each time.
`COC(C)(C)c1ncccc1Oc1cc2cccc(F)c2nc1C` [a-16, 3-[2-(2-methoxy-2-propyl)pyridin-3-yloxy]-8-fluoro-2-methylquinoline]: the pest or weed control at 100 ppm in test [1] and in test [2] was at least 75% each time.
For `CC(C)(C(=O)O)c1ncccc1Oc1cnc2c(F)cccc2c1` [a-19, 2-[3-(8-fluoro-quinolin-3-yloxy)-pyridin-2-yl]-2-methylpropionic acid], in test [2], the pest or weed control at 100 ppm was at least 75%.
Regarding `CC(C)(C=O)c1ncccc1Oc1cnc2c(F)cccc2c1` [a-21, 2-[3-(8-fluoro-quinolin-3-yloxy)-pyridin-2-yl]-2-methyl-propioaldehyde], the pest or weed control at 100 ppm in test [1] and in test [2] was at least 75% throughout.
`CCNC(=O)C(C)(C)c1ncccc1Oc1cnc2c(F)cccc2c1` [a-55, N-ethyl-2-[3-(8-fluoro-quinolin-3-yloxy)-pyridin-2-yl]-isobutylamide] had a pest or weed control at 100 ppm in test [2] of at least 75%.
As to `CCOC(C)(C)c1ncccc1Oc1cc2cccc(F)c2nc1C` [a-56, 3-[2-(2-ethoxy-2-propyl)pyridin-3-yloxy]-8-fluoro-2-methylquinoline], the pest or weed control at 100 ppm in test [1] and in test [2] was at least 75% each time.
